# Measurements as given in patent US20220401469A1, “PROCESS FOR PREPARATION OF BIOLOGICALLY ACTIVE COPOLYMER” (RECCE PHARMACEUTICALS LTD, priority 2020, published 2022).
# Several values for one entry are separate records, joined by “and”; a condition that tells them apart may be missing. Equal values may be shown once. Marks after values point to notes of the source that are not given here.
# Columns and labels:
# [1] = tested on: Neisseria gonorrhoea (ATCC700825); assay: Mouse vaginal infection model; settings: mice; Meropenem IV bolus 50 mg/kg for seven days; p<0.05
# E. coli [ATCC 25922] = assay: Ascending Urinary Tract Infection Rat Model (kidneys, bladder); type: in vivo
# [2] = tested on: Neisseria gonorrhoea (ATCC700825); settings: in vivo, 50 mg/kg
# [3] = tested on: Influenza A virus (H1N1) Strain: A/NWS/33; assay: Mouse influenza model (C57BL/6), body weights and lung viral titers; type: in vivo
# [4] = tested on: Staphylococcus aureus [ATCC 43300]; assay: Burn Wound Infection Model in rats; type: in vivo
# [5] = Meropenem 30 mg/kg single dose i.v. bolus
# [6] = Meropenem 30 mg/kg single dose i.v. bolus, individual animals
# [7] = Meropenem single IV bolus 30 mg/kg, E1 50 and 500 mg/kg i.v. 24 h infusion
compound,measurement,setting,value
C[C@@H](O)[C@H]1C(=O)N2C(C(=O)O)=C(S[C@@H]3CN[C@H](C(=O)N(C)C)C3)[C@H](C)[C@H]12 [Meropenem],bactericidal activity in vaginal load compared to vehicle control,[1],significant bactericidal activity in vaginal load
same,Mean Log10CFU/g Bladder change (wrt 4 h PI control: 6.54 Log10CFU/g Bladder),E. coli [ATCC 25922]; [5],−1.11 Log10CFU/g
same,Mean Log10CFU/g kidney change (wrt 4 h PI control: 4.73 Log10CFU/g kidneys),E. coli [ATCC 25922]; [5],−1.27 Log10CFU/g
same,Mean ± SD (Log10 CFU/g Bladder),E. coli [ATCC 25922]; [5],5.43 ± 0.36 Log10 CFU/g Bladder
same,Mean ± SD (Log10 CFU/g kidneys),E. coli [ATCC 25922]; [5],3.46 ± 0.19 Log10 CFU/g kidneys
same,Log10 CFU/g Bladder,E. coli [ATCC 25922]; [6],5.04 Log10 CFU/g and 5.24 Log10 CFU/g and 5.91 Log10 CFU/g and 5.25 Log10 CFU/g and 5.71 Log10 CFU/g
same,Log 10 CFU/g Kidneys Left kidney,E. coli [ATCC 25922]; [6],3.46 Log 10 CFU/g (2×) and 3.61 Log 10 CFU/g and 3.41 Log 10 CFU/g and 3.37 Log 10 CFU/g
same,Log 10 CFU/g Kidneys Right kidney,E. coli [ATCC 25922]; [6],3.36 Log 10 CFU/g and 3.69 Log 10 CFU/g and 3.80 Log 10 CFU/g and 3.16 Log 10 CFU/g and 3.31 Log 10 CFU/g
same,antibacterial activity in kidneys compared to vehicle control,E. coli [ATCC 25922]; [7],significant bactericidal activity in kidneys
same,antibacterial activity in the bladder compared to vehicle control,E. coli [ATCC 25922]; [7],significant bactericidal activity in the bladder
same,Clinical signs,[2],N
NC(=O)c1ncn([C@@H]2O[C@H](CO)[C@@H](O)[C@H]2O)n1 [Ribavirin],body weights compared to vehicle control on day 4,"[3]; Ribavarin, E1 25, 50 and 100 mg/kg, CE3 100, 500 and 1000 mg/kg, p<0.05",significantly higher body weights
same,viral growth rate and viral load in the lungs compared to vehicle control,"[3]; Ribavirin 66 mg/kg IP, E1 25-100 mg/kg, CE3 100-1000 mg/kg iv bid",significantly reduced the viral growth rate and viral load in the lungs
same,viral titres compared to vehicle control on day 4,"[3]; Ribavirin, E1 25, 50 and 100 mg/kg, CE3 100, 500 and 1000 mg/kg, p<0.05",significantly lower viral titres
same,Body weights Mean,"[3]; mice infected with H1N1, Ribavarin 66 mg/kg i.p., Day 0",23.92 g
same,Body weights Mean,"[3]; mice infected with H1N1, Ribavarin 66 mg/kg i.p., Day 1",23.50 g
same,Body weights Mean,"[3]; mice infected with H1N1, Ribavarin 66 mg/kg i.p., Day 2",24.22 g
same,Body weights Mean (g),"[3]; mice infected with H1N1, Ribavarin 66 mg/kg i.p., Day 4",24.67* g
same,Body weights Mean,"[3]; mice infected with H1N1, Ribavarin 66 mg/kg i.p., Day 6",24.70 g
same,body weight through the study,"[3]; mice infected with H1N1, Ribavirin 66 mg/kg once daily IP",no significant decrease in body weight
Saframycin,bacterial load on day 4 compared to day 1,"[4]; E1, CE3 100 μl (19.15 mg/ml) topical 3 days, Saframycin 30 mg topical b.i.d 3 days",did not show significant efficacy on day 4 when compared to day 1
same,% wound contraction on Day 4 PI (Mean ± SD),"[4]; E1, CE3 100 μl (19.15 mg/ml) topical 3 days, Safromycin 30 mg topical b.i.d 3 days",2.48 ± 0.30%
same,wound reduction on day 4 compared to vehicle control,"[4]; E1, CE3 100 μl (19.15 mg/ml) topical 3 days, Safromycin 30 mg topical b.i.d 3 days, p<0.05",significant reduction wound on day 4
same,Bacterial Load on skin post treatment Day 1 PI,"[4]; Mean ± SD, E1, CE3 100 μl (19.15 mg/ml) topical u.i.d 3 days, Safromycin 30 mg topical b.i.d 3 days, Day 1 PI",5.84 ± 0.35 Logic CFU/Swab
same,Bacterial Load on skin post treatment Day 4 PI,"[4]; Mean ± SD, E1, CE3 100 μl (19.15 mg/ml) topical u.i.d 3 days, Safromycin 30 mg topical b.i.d 3 days, Day 4 PI",4.87 ± 0.63 Logic CFU/Swab
